Key:
Format in all cases: in vivo
Conditions in all cases: treatment dosage 320 g/ha
barnyard grass [1] = experiment: Test Example 1: weedkilling efficacy, preemergent weed treatment in the submerged state; A: barnyard grass
Outline: (§1)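 Pre-emergence paddy test: weed seeds sown in submerged alluvial soil (4 cm water), 2.5-leaf rice transplanted, water-diluted emulsion applied to water surface at sowing at stated g/ha. Scored at 3 weeks, greenhouse 25–30 °C.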

fig-leafed goosefoot [2] = experiment: Test Example 4: weedkilling efficacy by foliar treatment; M: fig-leafed goosefoot
Outline: (§2)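 Seeds are spot-sown into sterilized diluvial soil and covered with about 1.5 cm of soil. After 14 days' greenhouse growth at 25 to 30° C, plants are sprayed on stems and leaves with diluted emulsion at the stated g/ha rate, then scored at 3 weeks.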

corn [3] = experiment: Test Example 4: foliar treatment, effect on crop; c: corn
Outline: as §2

wild oat [4] = experiment: Test Example 3: weedkilling efficacy through soil treatment; G: wild oat
Outline: (§3)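 Crop and weed responses were judged three weeks after a uniform surface spray of the water-diluted emulsion at the given g/ha rate. Seeds sat beneath about 1.5 cm of sterilized diluvial soil, and boxes stood in a greenhouse at 25 to 30° C.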

oval-leafed pondweed [5] = experiment: Test Example 1: weedkilling efficacy, preemergent weed treatment in the submerged state; C: oval-leafed pondweed
Outline: as §1

black-grass [6] = experiment: Test Example 4: weedkilling efficacy by foliar treatment; H: black-grass
Outline: as §2

common wind-grass [7] = experiment: Test Example 4: weedkilling efficacy by foliar treatment; J: common wind-grass
Outline: as §2

rapeseed [8] = experiment: Test Example 3: soil treatment, effect on crop; g: rapeseed
Outline: as §3

bulrush [9] = experiment: Test Example 1: weedkilling efficacy, preemergent weed treatment in the submerged state; B: bulrush
Outline: as §1

fig-leafed goosefoot [10] = experiment: Test Example 3: weedkilling efficacy through soil treatment; M: fig-leafed goosefoot
Outline: as §3

catchweed [11] = experiment: Test Example 4: weedkilling efficacy by foliar treatment; O: catchweed
Outline: as §2

green foxtail [12] = experiment: Test Example 3: weedkilling efficacy through soil treatment; E: green foxtail
Outline: as §3

wild oat [13] = experiment: Test Example 4: weedkilling efficacy by foliar treatment; G: wild oat
Outline: as §2

black-grass [14] = experiment: Test Example 3: weedkilling efficacy through soil treatment; H: black-grass
Outline: as §3

barnyard grass [15] = experiment: Test Example 3: weedkilling efficacy through soil treatment; F: barnyard grass
Outline: as §3

birds-eye speedwell [16] = experiment: Test Example 4: weedkilling efficacy by foliar treatment; p: birds-eye speedwell
Outline: as §2

barnyard grass [17] = experiment: Test Example 4: weedkilling efficacy by foliar treatment; F: barnyard grass
Outline: as §2

Indian mallow [18] = experiment: Test Example 3: weedkilling efficacy through soil treatment; K: Indian mallow
Outline: as §3

directly sown rice [19] = experiment: Test Example 4: foliar treatment, effect on crop; b: directly sown rice
Outline: as §2

beet [20] = experiment: Test Example 4: foliar treatment, effect on crop; f: beet
Outline: as §2

Indian mallow [21] = experiment: Test Example 4: weedkilling efficacy by foliar treatment; K: Indian mallow
Outline: as §2

wheat [22] = experiment: Test Example 4: foliar treatment, effect on crop; e: wheat
Outline: as §2

redroot pigweed [23] = experiment: Test Example 3: weedkilling efficacy through soil treatment; L: redroot pigweed
Outline: as §3

beet [24] = experiment: Test Example 3: soil treatment, effect on crop; f: beet
Outline: as §3

common wind-grass [25] = experiment: Test Example 3: weedkilling efficacy through soil treatment; J: common wind-grass
Outline: as §3

oval-leafed pondweed [26] = experiment: Test Example 2: weedkilling efficacy, growth period weed treatment in the submerged state; C: oval-leafed pondweed
Outline: (§4)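 Seedlings at 1-2 leaves in 4 cm-deep submerged alluvial soil received emulsion formulations on the water surface, dosed per hectare; effects were judged 3 weeks on.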

green foxtail [27] = experiment: Test Example 4: weedkilling efficacy by foliar treatment; E: green foxtail
Outline: as §2

wheat [28] = experiment: Test Example 3: soil treatment, effect on crop; e: wheat
Outline: as §3

barnyard grass [29] = experiment: Test Example 2: weedkilling efficacy, growth period weed treatment in the submerged state; A: barnyard grass
Outline: as §4

corn [30] = experiment: Test Example 3: soil treatment, effect on crop; c: corn
Outline: as §3

rapeseed [31] = experiment: Test Example 4: foliar treatment, effect on crop; g: rapeseed
Outline: as §2

Italian ryegrass [32] = experiment: Test Example 3: weedkilling efficacy through soil treatment; I: Italian ryegrass
Outline: as §3

redroot pigweed [33] = experiment: Test Example 4: weedkilling efficacy by foliar treatment; L: redroot pigweed
Outline: as §2

chickweed [34] = experiment: Test Example 4: weedkilling efficacy by foliar treatment; N: chickweed
Outline: as §2

birds-eye speedwell [35] = experiment: Test Example 3: weedkilling efficacy through soil treatment; p: birds-eye speedwell
Outline: as §3

Italian ryegrass [36] = experiment: Test Example 4: weedkilling efficacy by foliar treatment; I: Italian ryegrass
Outline: as §2

soybean [37] = experiment: Test Example 3: soil treatment, effect on crop; d: soybean
Outline: as §3

directly sown rice [38] = experiment: Test Example 3: soil treatment, effect on crop; b: directly sown rice
Outline: as §3

crabgrass [39] = experiment: Test Example 4: weedkilling efficacy by foliar treatment; D: crabgrass
Outline: as §2

soybean [40] = experiment: Test Example 4: foliar treatment, effect on crop; d: soybean
Outline: as §2

bulrush [41] = experiment: Test Example 2: weedkilling efficacy, growth period weed treatment in the submerged state; B: bulrush
Outline: as §4

transplanted rice = experiment: Test Example 1: preemergent weed treatment in the submerged state, effect on crop; a: transplanted rice
Outline: as §1

chickweed [42] = experiment: Test Example 3: weedkilling efficacy through soil treatment; N: chickweed
Outline: as §3

catchweed [43] = experiment: Test Example 3: weedkilling efficacy through soil treatment; O: catchweed
Outline: as §3

crabgrass [44] = experiment: Test Example 3: weedkilling efficacy through soil treatment; D: crabgrass
Outline: as §3

## CC1=C(c2ccccc2)C(=O)N(C(C)(C)C(=O)Nc2cc(C(F)F)ccn2)CO1 [B-2-54]
Barnyard grass [1]
  A (barnyard grass) weedkilling efficacy grade: 5 (weed kill ratio 90% or more, (practically complete withering))
fig-leafed goosefoot [2]
  M (fig-leafed goosefoot) weedkilling efficacy grade: 4 (weed kill ratio 70% or more, less than 90%)
Corn [3]
  c (corn) effect on crop grade: 3 (weed kill ratio 40% or more, less than 70%)
Wild oat [4]
  G (wild oat) weedkilling efficacy grade: 5 (weed kill ratio 90% or more, (practically complete withering))
oval-leafed pondweed [5]
  C (oval-leafed pondweed) weedkilling efficacy grade: 5 (weed kill ratio 90% or more, (practically complete withering))
black-grass [6]
  H (black-grass) weedkilling efficacy grade: 5 (weed kill ratio 90% or more, (practically complete withering))
Common wind-grass [7]
  J (common wind-grass) weedkilling efficacy grade: 5 (weed kill ratio 90% or more, (practically complete withering))
Rapeseed [8]
  g (rapeseed) effect on crop grade: 4 (weed kill ratio 70% or more, less than 90%)
Bulrush [9]
  B (bulrush) weedkilling efficacy grade: 5 (weed kill ratio 90% or more, (practically complete withering))
fig-leafed goosefoot [10]
  M (fig-leafed goosefoot) weedkilling efficacy grade: 3 (weed kill ratio 40% or more, less than 70%)
Catchweed [11]
  O (catchweed) weedkilling efficacy grade: 4 (weed kill ratio 70% or more, less than 90%)
Green foxtail [12]
  E (green foxtail) weedkilling efficacy grade: 5 (weed kill ratio 90% or more, (practically complete withering))
Wild oat [13]
  G (wild oat) weedkilling efficacy grade: 5 (weed kill ratio 90% or more, (practically complete withering))
black-grass [14]
  H (black-grass) weedkilling efficacy grade: 5 (weed kill ratio 90% or more, (practically complete withering))
Barnyard grass [15]
  F (barnyard grass) weedkilling efficacy grade: 5 (weed kill ratio 90% or more, (practically complete withering))
birds-eye speedwell [16]
  P (birds-eye speedwell) weedkilling efficacy grade: 4 (weed kill ratio 70% or more, less than 90%)
Barnyard grass [17]
  F (barnyard grass) weedkilling efficacy grade: 5 (weed kill ratio 90% or more, (practically complete withering))
Indian mallow [18]
  K (Indian mallow) weedkilling efficacy grade: 3 (weed kill ratio 40% or more, less than 70%)
Directly sown rice [19]
  b (directly sown rice) effect on crop grade: 5 (weed kill ratio 90% or more, (practically complete withering))
Beet [20]
  f (beet) effect on crop grade: 4 (weed kill ratio 70% or more, less than 90%)
Indian mallow [21]
  K (Indian mallow) weedkilling efficacy grade: 4 (weed kill ratio 70% or more, less than 90%)
Wheat [22]
  e (wheat) effect on crop grade: 0 (weed kill ratio 5% or less (practically no effect))
Redroot pigweed [23]
  L (redroot pigweed) weedkilling efficacy grade: 4 (weed kill ratio 70% or more, less than 90%)
Beet [24]
  f (beet) effect on crop grade: 4 (weed kill ratio 70% or more, less than 90%)
Common wind-grass [25]
  J (common wind-grass) weedkilling efficacy grade: 5 (weed kill ratio 90% or more, (practically complete withering))
oval-leafed pondweed [26]
  C (oval-leafed pondweed) weedkilling efficacy grade: 5 (weed kill ratio 90% or more, (practically complete withering))
Green foxtail [27]
  E (green foxtail) weedkilling efficacy grade: 5 (weed kill ratio 90% or more, (practically complete withering))
Wheat [28]
  e (wheat) effect on crop grade: 0 (weed kill ratio 5% or less (practically no effect))
Barnyard grass [29]
  A (barnyard grass) weedkilling efficacy grade: 5 (weed kill ratio 90% or more, (practically complete withering))
Corn [30]
  c (corn) effect on crop grade: 2 (weed kill ratio 20% or more, less than 40%)
Rapeseed [31]
  g (rapeseed) effect on crop grade: 4 (weed kill ratio 70% or more, less than 90%)
Italian ryegrass [32]
  I (Italian ryegrass) weedkilling efficacy grade: 5 (weed kill ratio 90% or more, (practically complete withering))
Redroot pigweed [33]
  L (redroot pigweed) weedkilling efficacy grade: 4 (weed kill ratio 70% or more, less than 90%)
Chickweed [34]
  N (chickweed) weedkilling efficacy grade: 4 (weed kill ratio 70% or more, less than 90%)
birds-eye speedwell [35]
  P (birds-eye speedwell) weedkilling efficacy grade: 5 (weed kill ratio 90% or more, (practically complete withering))
Italian ryegrass [36]
  I (Italian ryegrass) weedkilling efficacy grade: 5 (weed kill ratio 90% or more, (practically complete withering))
Soybean [37]
  d (soybean) effect on crop grade: 0 (weed kill ratio 5% or less (practically no effect))
Directly sown rice [38]
  b (directly sown rice) effect on crop grade: 5 (weed kill ratio 90% or more, (practically complete withering))
Crabgrass [39]
  D (crabgrass) weedkilling efficacy grade: 5 (weed kill ratio 90% or more, (practically complete withering))
Soybean [40]
  d (soybean) effect on crop grade: 4 (weed kill ratio 70% or more, less than 90%)
Bulrush [41]
  B (bulrush) weedkilling efficacy grade: 5 (weed kill ratio 90% or more, (practically complete withering))
Transplanted rice
  a (transplanted rice) effect on crop grade: 5 (weed kill ratio 90% or more, (practically complete withering))
Chickweed [42]
  N (chickweed) weedkilling efficacy grade: 4 (weed kill ratio 70% or more, less than 90%)
Catchweed [43]
  O (catchweed) weedkilling efficacy grade: 4 (weed kill ratio 70% or more, less than 90%)
Crabgrass [44]
  D (crabgrass) weedkilling efficacy grade: 5 (weed kill ratio 90% or more, (practically complete withering))

Reference: patent publication US9738634B2, “Heterocyclic amide compound and herbicide” (SYNGENTA PARTICIPATIONS AG, priority 2013, dated 2017)
